Results taken from patent publication US20240131199A1, “PH RESPONSIVE CYANINE DYES AND CONJUGATES THEREOF” (BRACCO IMAGING S.P.A., priority 2020, published 2024).
Where two headings read alike, the source gives them in different places. Each block holds one compound with its values, some of them ahead of it.

Experiments:
[1] = literature value; cited from earlier work
[2] = pKa of prior-art pH sensitive cyanine dyes (literature); format: physicochemical; details: worked out from literature pKa
[3] = pK assessment from absorbance/emission versus pH in phosphate buffers; format: physicochemical; details: for pKa: phosphate buffers at different pH, inflection point of absorbance vs pH, phosphate buffers, read-out: pKa (by abs)
Protocol: From the analysis of the variation of the absorbance and emission with respect to the variation of pH, it was possible to calculate the pKa of the dyes of the invention as the inflection point of the interpolated curve.
All the pH buffers used for the experiment were phosphate based buffers and each pH point has been accurately checked with pH-meter. First the cyanine powder was dissolved in water at ca. 1 mg/mL concentration and then 10 μL of this mother solution were added to 1 ml of phosphate buffers at different pH, previously prepared mixing ortophosphoric acid and sodium hydroxide in the right amount to reach the desired pH. The diluted cyanine buffered solutions were then sampled and transferred into a 96 wells plate (clear for the absorbance measurements and dark for the emission measurements) for the analyses. By plotting for each solution the value of the absorbance at the maximum of the active form, for instance 780 nm for Compound 5, vs. the pH of the solution, a polynomial cubic curve was obtained, whose flex corresponds to the pKa value of the cyanine.

[4] = Optical characterization (absorbance, excitation and emission spectra, microplate reader); format: physicochemical; details: phosphate buffer; for Abs. Max. / Em. Max.: maximum of the active form
Protocol: All commercially available reagents used in the synthesis were obtained from Sigma Aldrich and TCI and they were used without further purification. c(RGDfK) was purchased from Apex Bio or Bachem. All the reactions were followed by HPLC (Agilent mod. 1100/1200) and HPLC-MS (Agilent mod. 1260, Quadrupole LC/MSD Mod. 6120) equipped with an absorption detector set at different wavelengths (Column: YMC-Triart Phenyl, 250×4.6 mm/S-5 μm/12 nm). Purifications were performed by flash chromatography on an automated purification system (CombiFlash® Rf+), using pre-packed silica C18 cartridges (Biotage® or Phenomenex) or by preparative HPLC on preparative YMC-Triart Phenyl column. Absorbance, excitation and emission values were assessed in a well plate reader to speed-up the measurements (SPARK).
Optical characterization was performed for each compound with Spark® multimode microplate reader, registering with specific 96-wells plate the absorbance, excitation and emission spectra of the fluorophore buffered in phosphate buffer at several pH, ranging from 3 to 8.
In particular, the absorbance, excitation and emission maxima of representative compounds of formula (I) and conjugates of formula (II) are shown in Table III.

[5] = Residual fluorescence at different pH relative to pH 3; format: physicochemical; details: unit assumed; for Em. at pH 5/Em at pH 3: fluorescence at pH 5 relative to maximum at pH 3; for Em. at pH 6/Em at pH 3: fluorescence at pH 6 relative to maximum at pH 3; for Em. at pH 7.5/Em at pH 3: fluorescence at pH 7.5 relative to maximum at pH 3
Protocol: The ratio of the fluorescence at different pH (5, 6 and 7.5) with respect to the maximum fluorescence collected at pH 3 (highly acidic) was calculated for several representative compounds of the invention and the results are reported in the following Table V. The results were also compared to the values calculated for the non-alkylated Reference Compound A.

pH at which 95% protonation is achieved [2]: 4.2
SMILES: CC1(C)C(/C=C/C2=C(c3ccc(C(=O)O)cc3)C(=C/C=C3/Nc4ccc(S(=O)(=O)O)cc4C3(C)C)/CCC2)=Nc2ccc(S(=O)(=O)O)cc21 [B]
pKa [1]: 5.2

pKa [3]: 6
Exc. Max. [4]: 783 nm
Abs. Max. [4]: 784 nm
Em. Max. [4]: 804 nm
Em. at pH 5/Em at pH 3 [5]: 104%
Em. at pH 6/Em at pH 3 [5]: 55%
Em. at pH 7.5/Em at pH 3 [5]: 9%
SMILES: CC(CC[N+]1=C(/C=C/C2=C(Cl)C(=C/C=C3/Nc4ccc(S(=O)(=O)O)cc4C3(C)C)/CCC2)C(C)(C)c2cc(C(=O)O)ccc21)S(=O)(=O)[O-] (centres unmarked) [Compound 1]

Exc. Max. [4]: 780 nm
Abs. Max. [4]: 782 nm
Em. Max. [4]: 807 nm
SMILES: CC(CC[N+]1=C(/C=C/C2=C(Cl)C(=C/C=C3/Nc4ccc(S(=O)(=O)O)cc4C3(C)C)/CCC2)C(C)(C)c2cc(C(=O)NCC(O)C(O)C(O)C(O)CO)ccc21)S(=O)(=O)[O-] (centres unmarked) [Compound 3]

pKa [3]: 6.4
SMILES: CC1(C)C(/C=C/C2=C(c3ccc(C(=O)NCCS(=O)(=O)O)cc3)C(=C/C=C3/Nc4ccc(S(=O)(=O)O)cc4C3(C)C)/CCC2)=[N+](CCCCCC(=O)O)c2ccc(S(=O)(=O)[O-])cc21 [Compound 4]

pKa (from emission vs pH) ([3]; emission at 804 nm vs pH, second source of data): same value of pKa
pKa [3]: 5.9
SMILES: CC1(C)C(/C=C/C2=C(Cl)C(=C/C=C3/Nc4ccc(S(=O)(=O)O)cc4C3(C)C)/CCC2)=[N+](CCCCCC(=O)O)c2ccc(S(=O)(=O)[O-])cc21 [Compound 5]

pKa [3]: 6
SMILES: CC1(C)C(/C=C/C2=C(Cl)C(=C/C=C3/Nc4ccc(S(=O)(=O)[O-])cc4C3(C)C)/CCC2)=[N+](CCCCCC(=O)O)c2ccc(C(=O)NCC(O)C(O)C(O)C(O)CO)cc21 (centres unmarked) [Compound 6]

pKa [3]: 6.1
SMILES: CC1(C)C(/C=C/C2=C(Cl)C(=C/C=C3/N(CCCCCC(=O)O)c4ccc(C(=O)NCC(O)C(O)C(O)C(O)CO)cc4C3(C)C)/CCC2)=Nc2ccc(C(=O)NCC(O)C(O)C(O)C(O)CO)cc21 (centres unmarked) [Compound 7]

pKa [3]: 6
Exc. Max. [4]: 740 nm
Abs. Max. [4]: 742 nm
Em. Max. [4]: 777 nm
Em. at pH 5/Em at pH 3 [5]: 96%
Em. at pH 6/Em at pH 3 [5]: 66%
Em. at pH 7.5/Em at pH 3 [5]: 10%
SMILES: CC1(C)C(/C=C/C=C/C=C/C=C2/Nc3ccc(S(=O)(=O)O)cc3C2(C)C)=[N+](CCCCCC(=O)O)c2ccc(S(=O)(=O)O)cc21 [Compound 8]

pKa [3]: 6.7
SMILES: CC1(C)C(/C=C/C(Cl)=C/C=C2/N(CCCCCC(=O)O)c3ccc4c(S(=O)(=O)O)cc(S(=O)(=O)O)cc4c3C2(C)C)=Nc2ccc3c(S(=O)(=O)O)cc(S(=O)(=O)O)cc3c21 [Compound 9]

SMILES: CC1(C)C(/C=C/C2=C(Cl)C(=C/C=C3/Nc4ccc(S(=O)(=O)O)cc4C3(C)C)/CCC2)=[N+](CCCCCC(=O)NCCCCC2NC(=O)[C@@H](Cc3ccccc3)NC(=O)[C@H](CC(=O)O)NC(=O)CNC(=O)[C@H](CCCNC(=N)N)NC2=O)c2ccc(S(=O)(=O)[O-])cc21 (some centres unmarked) [Compound 10]
pKa [3]: 5.8

SMILES: CC1(C)C(/C=C/C2=C(Cl)C(=C/C=C3/Nc4ccc(S(=O)(=O)O)cc4C3(C)C)/CCC2)=[N+](CCCCCC(=O)NCCCCC2NC(=O)[C@@H](Cc3ccccc3)NC(=O)[C@H](CC(=O)O)NC(=O)CNC(=O)[C@H](CCCNC(=N)N)NC2=O)c2ccc(C(=O)NCC(O)C(O)C(O)C(O)CO)cc21 (some centres unmarked) [Compound 11]
pKa [3]: 6.3

SMILES: CC1(C)C(/C=C/C2=C(Cl)C(=C/C=C3/Nc4ccc(C(=O)NCC(O)C(O)C(O)C(O)CO)cc4C3(C)C)/CCC2)=[N+](CCCCCC(=O)NCCCCC2NC(=O)[C@@H](Cc3ccccc3)NC(=O)[C@H](CC(=O)O)NC(=O)CNC(=O)[C@H](CCCNC(=N)N)NC2=O)c2ccc(C(=O)NCC(O)C(O)C(O)C(O)CO)cc21 (some centres unmarked) [Compound 12]
Exc. Max. [4]: 790 nm
Abs. Max. [4]: 793 nm
Em. Max. [4]: 814 nm

SMILES: CC1(C)C(/C=C/C=C/C=C2/Nc3ccc(S(=O)(=O)O)cc3C2(C)CCCCCC(=O)O)=[N+](CCCCS(=O)(=O)O)c2ccc(S(=O)(=O)O)cc21 (centres unmarked) [CypHer5E]
pKa [1]: ~7.3

pKa [3]: 4.6
Em. at pH 5/Em at pH 3 [5]: 40%
Em. at pH 6/Em at pH 3 [5]: 10%
Em. at pH 7.5/Em at pH 3 [5]: 1%
pH at which 95% protonation is achieved [2]: 3.7
SMILES: CC1(C)C(/C=C/C2=C(Cl)C(=C/C=C3/Nc4ccc(S(=O)(=O)O)cc4C3(C)C)/CCC2)=Nc2ccc(S(=O)(=O)O)cc21 [Reference Compound A, reference compound]
pKa [1]: 4.7

SMILES: CC[N+]1=C(/C=C/C=C/C=C2/Nc3ccc(CC(=O)O)cc3C2(C)C)C(C)(C)c2cc(S(=O)(=O)[O-])ccc21 [pentamethine cyanine dye]
pKa [1]: 7.5
